Laboratory results reported in patent publication US9400283B2, “In vitro method using human skin for evaluating the influence of ABC transporters” (GALDERMA RESEARCH & DEVELOPMENT, priority 2011, dated 2016).

Experiments:
human skin samples [1] = assay: Cutaneous distribution of LTC4 by autoradiography of skin sections; type: in vitro ADME
Method: The distribution of Vinblastine in the skin was analyzed by autoradiography. Skin samples were placed in a tissue holder and freeze-mounted in cryomount embedding medium. The frozen blocks were sectioned into slices 8-10 μm thick, perpendicular to the epidermal surface in a cryomicrotome (Thermo Electron). The sections were collected on glass slides and dried. Cryosections were placed on a Fuji imaging plate type Bas-III (20×40 cm) in a Fujix Bas cassette 2040 during 24 hours to 5 days. The exposed plate was scanned with a Bio-Imaging analyzer (Fujix BAS 2000). The scanned images were analyzed using TINA software.
The distribution of the LTC4 in the skin was analyzed by autoradiography. The experimental conditions are identical to those described previously for vinblastine.

[2] = test system: ex vivo human skin samples; assay: In vitro skin absorption of vinblastine (receptor fluid, liquid scintillation counting); details: for vinblastine skin absorption (amount in receptor fluid): 16 hours
human skin samples [3] = assay: In vitro cutaneous absorption of LTC4 (receptor fluid, liquid scintillation counting); type: in vitro ADME; details: 68.5 nM LTC4 10 μL/cm2, 6 hours
Method: Tritium labeled LTC4 was used. The concentration of the LTC4 solution used was 68.5 nM (0.01 mCi/mL).
At the end of the period of treatment with the inhibitor, the skin samples, both the control samples and those treated with the inhibitor, were treated with the LTC4 solution. […] The duration of the treatment with LTC4 was 6 hours.
The in vitro LTC4 skin absorption experiments were performed with fresh skin samples originating from three different donors. The experiments were performed in 6-well Transwell plates, with a 1 cm^2 area of treated skin and receptor fluid volumes of 1.5 mL. The treatment volume for the skin surface was 10 μL, corresponding to 0.69 […] and 222 000 dpm. Three different experiments were performed with skin samples originating from three different donors. In each experiment, each condition was performed in triplicate (N=9 in total).

human skin samples [4] = assay: Skin distribution of Rhodamine 123 by epifluorescence microscopy; type: in vitro ADME; details: skin samples treated with Verapamil, data not shown

Structure (SMILES): CN(C)C(=O)CCSC(SCCC(=O)O)c1cccc(/C=C/c2ccc3ccc(Cl)cc3n2)c1 (stereo not shown) [MK571]
- effect of MK571 on cutaneous distribution of LTC4 (autoradiography signal) (human skin samples [1]; skin treated with the inhibitor MK571): appreciable increase in the intensity of the signal related to LTC4

Structure (SMILES): CC[C@]1(O)C[C@@H]2CN(CCc3c([nH]c4ccccc34)[C@@](C(=O)OC)(c3cc4c(cc3OC)N(C)[C@H]3[C@@](O)(C(=O)OC)[C@H](OC(C)=O)[C@]5(CC)C=CCN6CC[C@]43[C@@H]65)C2)C1 [vinblastine, Vinblastine]
- vinblastine skin absorption (amount in receptor fluid) ([2]; dermarolled skin (32 roller passages)): 0.6 nmol
- increase of vinblastine skin absorption by skin perforation by dermaroller ([2]; dermarolled versus intact skin): about 200 times
- vinblastine skin absorption, share of the applied dose ([2]; intact human skin, 2.5 mM [3H]-vinblastine 10 μL/cm2, 16 hours, receptor fluid): 0.001 % of the applied dose
- vinblastine skin absorption (amount in receptor fluid) ([2]; intact human skin): 0.003 nmol
- increase of vinblastine skin absorption by tape stripping ([2]; stripped versus intact skin): about 20 times
- vinblastine skin absorption (amount in receptor fluid) ([2]; tape stripped skin (30 stripes)): 0.07 nmol

Structure (SMILES): CCCCC/C=C\C\C=C/C=C/C=C/[C@@H](SC[C@H](NC(=O)CC[C@H](N)C(=O)O)C(=O)NCC(=O)O)[C@@H](O)CCCC(=O)O [LTC4, leukotriene-C4]
- cutaneous absorption of LTC4, share of the applied dose (human skin samples [3]): about 1.7 % of the applied dose
- cutaneous distribution of LTC4 (autoradiography signal) (human skin samples [1]; skin sections without treatment with the inhibitor): a radioactive signal related to LTC4 is observed in the uppermost part of the skin section corresponding to the epidermis

Structure (SMILES): COc1ccc(CCN(C)CCCC(C#N)(c2ccc(OC)c(OC)c2)C(C)C)cc1OC (stereo not shown) [verapamil, Verapamil]
- effect of Verapamil on Rhodamine 123 fluorescence intensity in skin sections (human skin samples [4]): No difference in fluorescence intensity
